Test results published in patent publication US20150329498A1, “IRAK INHIBITORS AND USES THEREOF” (Nimbus Iris, Inc., priority 2014, published 2015).

Columns and labels:
[1] = tested on: IL8 production in THP-1 cells; experiment: LPS induced IL8 production assay in THP-1 cells; type: cell-based; conditions: Homo sapiens, 300 ng/mL LPS, measured at 16 hours
Procedure: (§1) Provided compounds were also assayed in an LPS (Lipopolysaccharide) or R848 (TLR-7 agonist) induced cytokine (TNFα and IL8) production assay in THP-1 cells, human white blood cells (hWBC), and human whole blood. The exemplary protocol for this assay in THP-1 cells was as follows below.
(§2) THP-1 cells from ATCC (TIB-202) were cultured in RPMI Medium 1640 (Invitrogen, Cat No. A10491-01), 10% fetal bovine serum (Invitrogen, Cat No. 10099141, Lot No. 8172882) containing 100 U/mL Penicillin, 100 μg/mL streptomycin (Invitrogen, Cat No. 15140-122), and 50 uM 2-Mercaptoethanol (Invitrogen, Cat No. 21985023). LPS-EK ultra pure (Invivogen, Cat No. tlrl-peklps) was used to induce IL8 and TNFα production, that was detected in the cell culture supernatant by IL8 HTRF kit (Cisbio, Cat No. 62IL8PEB) and TNFα HTRF kit (Cisbio, Cat No. 62TNFPEB), as per manufacturer instructions. Cells were cultured in 96 well assay plates at 100,000 cells per well, and compounds diluted in final 0.3% DMSO were pre-incubated with cells for 1 hour prior to stimulation with 300 ng/mL LPS. Cytokine production in cell supernatant was measured at 5 hours for TNFα production, and at 16 hours for IL8 production and assessment of cell viability.
(§3) The compound numbers correspond to the compound numbers in Table 1. Compounds having an activity designated as “A” provided an IC50≦0.5 μM; compounds having an activity designated as “B” provided an IC50 of 0.5-5.0 μM; compounds having an activity designated as “C” provided an IC50>5.0 μM. “NA” stands for “not assayed.”

[2] = tested on: TNFα production in THP-1 cells; experiment: LPS induced TNFα production assay in THP-1 cells; type: cell-based; conditions: Homo sapiens, 300 ng/mL LPS, measured at 5 hours
Procedure: as §1, §2, §3

IRAK4 = biological target: T1, IRAK4 (Homo sapiens, UniProt Q9NWZ3); experiment: IRAK-4 activity inhibition assay (Caliper); type: biochemical; conditions: 3.5 nM IRAK4, 1.5 μM Peptide 8, 37 μM ATP
T1 construct: purchased CARNA Bioscience 09-145
T1 sequence (Q9NWZ3 1-460): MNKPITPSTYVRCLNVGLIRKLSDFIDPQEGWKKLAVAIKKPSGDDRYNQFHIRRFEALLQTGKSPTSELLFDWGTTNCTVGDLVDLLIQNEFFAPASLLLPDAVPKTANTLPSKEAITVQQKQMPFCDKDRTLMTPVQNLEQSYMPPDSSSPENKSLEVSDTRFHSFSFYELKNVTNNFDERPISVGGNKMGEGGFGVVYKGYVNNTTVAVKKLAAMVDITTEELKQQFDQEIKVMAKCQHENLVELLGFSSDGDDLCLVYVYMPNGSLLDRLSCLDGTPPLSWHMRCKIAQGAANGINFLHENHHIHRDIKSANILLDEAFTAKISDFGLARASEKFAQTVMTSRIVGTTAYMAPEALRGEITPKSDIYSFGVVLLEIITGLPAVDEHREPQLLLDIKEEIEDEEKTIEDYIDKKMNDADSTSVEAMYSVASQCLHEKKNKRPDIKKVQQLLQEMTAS
Procedure: A 1x kinase base buffer was prepared from 50 mM HEPES, pH 7.5 and 0.0015% Brij-35. A stop buffer was prepared from 100 mM HEPES, pH 7.5, 0.015% Brij-35, 0.2% Coating Reagent #3, and 50 mM EDTA.
Test compound was diluted to 50× of the final desired highest inhibitor concentration in reaction by 100% DMSO. 100 ul of this compound dilution was transferred to a well in a 96-well plate. For example, if desired highest inhibitor concentration in IC50 determination is 100 uM, then prepare 5000 uM of compound DMSO solution in this step.
Test compound was serially diluted by transferring 30 μl to 60 μl of 100% DMSO in the next well and so forth for a total of 10 concentrations. 100 μl of 100% DMSO was added to two empty wells for no compound control and no enzyme control in the same 96-well plate.
A new 96-well plate was marked as intermediate plate. 5 μl of compound serial dilution was transferred from source plate to the corresponding wells of the intermediate plate. 45 μl of 1x kinase base buffer (KB buffer) was added to each well of the intermediate plate. The intermediate plate was placed for 10 min on a shaker.
5 μl of each well was transferred from the 96-well intermediate plate to a 384-well plate in duplicates. For example, A1 of the 96-well plate is transferred to A1 and A2 of the 384-well plate. A2 of the 96-well plate is transferred to A3 and A4 of the 384-well plate, and so on.
IRAK4 and DTT in 1x kinase base buffer was added. The 2.5x enzyme mix contained 8.8 nM IRAK4 and 5 mM DTT.
Peptide 8, ATP, MgCl2 and MnCl2 were added in the 1x kinase base buffer. The 2.5x peptide mix contained 3.75 μM peptide 8, 92.5 μM ATP, 12.5 mM MgCl2 and 2.5 mM MnCl2.
Assay plate already contained 5 μl of compound in 10% DMSO. Added 10 μl of 2.5x enzyme solution to each well of the 384-well assay plate, except no enzyme control wells. The final concentration of IRAK4 in reaction was 3.5 nM. Added 10 μl of 1x kinase base buffer to no enzyme control wells in the assay plate. Incubated at room temperature for 10 min.
Added 10 μl of 2.5x peptide solution to each well of the 384-well assay plate. The final concentration of Peptide 8 and ATP was 1.5 μM and 37 μM, respectively. Incubated at for 40 minutes. Added 25 μl of stop buffer to stop reaction. Collected data on Caliper.
Copied conversion % data from Caliper program. Converted conversion % values to percent inhibition values. Percent inhibition=(max−conversion %)/(max−min)*100, where “max” means the conversion % of DMSO control and “min” means the conversion % of no enzyme control.
The compound numbers correspond to the compound numbers in Table 1. Compounds having an activity designated as “A” provided an IC50≦5 μM; compounds having an activity designated as “B” provided an IC50 of 5-20 μM; compounds having an activity designated as “C” provided an IC50 of 20-50 μM; and compounds having an activity designated as “D” provided an IC50≧50 μM. “NA” stands for “not assayed.”

Row | IC50 [1] | IC50 [2] | IC50 (IRAK4) | Structure (SMILES)
1 | ≤ 500 nM | ≤ 500 nM | ≤ 5000 nM | N#Cc1ccc2nc(Nc3cnn(C4CCOCC4)c3)nc(N[C@H]3CC[C@H](N4CCOCC4)CC3)c2c1 [Compound I-16, 4-(((1r,4r)-4-morpholinocyclohexyl)amino)-2-((1-(tetrahydro-2H-pyran-4-yl)-1H-pyrazol-4-yl)amino)quinazoline-6-carbonitrile]
2 | ≤ 500 nM | 500 to 5000 nM | ≤ 5000 nM | N#Cc1ccc2nccc(N[C@H]3CC[C@H](N4CCOCC4)CC3)c2c1 [Compound I-47, 4-(((1r,4r)-4-morpholinocyclohexyl)amino)quinoline-6-carbo-nitrile]
3 | ≤ 500 nM | ≤ 500 nM | ≤ 5000 nM | OCC#Cc1ccc2ncnc(N[C@H]3CC[C@H](N4CCOCC4)CC3)c2c1 [Compound I-30, 3-(4-(((1r,4r)-4-morpholinocyclohexyl)amino)quinazolin-6-yl)prop-2-yn-1-ol]
4 | ≤ 500 nM | ≤ 500 nM | ≤ 5000 nM | Brc1ccc2ncnc(N[C@H]3CC[C@H](N4CCOCC4)CC3)c2c1 [Compound I-2, 6-bromo-N-((1r,4r)-4-morpholinocyclohexyl)quinazolin-4-amine]
5 | ≤ 500 nM | 500 to 5000 nM | ≤ 5000 nM | N#Cc1ccc2nc(Nc3cnn(CCOCCO)c3)nc(N[C@H]3CC[C@H](N4CCOCC4)CC3)c2c1 [Compound I-24, 2-((1-(2-(2-hydroxyethoxy)ethyl)-1H-pyrazol-4-yl)amino)-4-(((1r,4r)-4-morpholinocyclohexyl)amino)quinazoline-6-carbonitrile]
6 | ≤ 500 nM | ≤ 500 nM | ≤ 5000 nM | Cn1cc(Nc2nc(N[C@H]3CC[C@H](N4CCOCC4)CC3)c3cc(C#N)ccc3n2)cn1 [Compound I-11, 2-((1-methyl-1H-pyrazol-4-yl)amino)-4-(((1r,4r)-4-morpholino-cyclohexyl)amino)quinazoline-6-carbonitrile]
7 | 500 to 5000 nM | 500 to 5000 nM | ≤ 5000 nM | CS(=O)(=O)CCCn1cc(Nc2nc(N[C@H]3CC[C@H](N4CCOCC4)CC3)c3cc(C#N)ccc3n2)cn1 [Compound I-25, 2-((1-(3-(methylsulfonyl)propyl)-1H-pyrazol-4-yl)amino)-4-(((1r,4r)-4-morpholinocyclohexyl)amino)quinazoline-6-carbonitrile]
8 | ≤ 500 nM | ≤ 500 nM | ≤ 5000 nM | Clc1ccc2ncnc(N[C@H]3CC[C@H](N4CCOCC4)CC3)c2c1 [Compound I-26, 6-chloro-N-((1r,4r)-4-morpholinocyclohexyl)quinazolin-4-amine]
9 | – | ≤ 500 nM | ≤ 5000 nM | C=Cc1ccc2ncnc(N[C@H]3CC[C@H](N4CCOCC4)CC3)c2c1 [Compound I-20, N-((1r,4r)-4-morpholinocyclohexyl)-6-vinylquinazolin-4-amine]

Second part, the molecule before the results:

Row | Structure (SMILES) | IC50 [1] | IC50 [2] | IC50 (IRAK4)
10 | CN(C)[C@H]1CC[C@H](Nc2ncnc3ccc(CC#N)cc23)CC1 [Compound I-53, 2-(4-(((1r,4r)-4-(dimethylamino)cyclohexyl)amino)quinazolin-6-yl)acetonitrile] | ≤ 500 nM | 500 to 5000 nM | ≤ 5000 nM
11 | CCc1ccc2ncnc(N[C@H]3CC[C@H](N4CCC5(CC4)CC5)CC3)c2c1 [Compound I-39, N-((1r,4r)-4-(6-azaspiro[2.5]octan-6-yl)cyclohexyl)-6-ethyl-quinazolin-4-amine] | ≤ 500 nM | ≤ 500 nM | ≤ 5000 nM
12 | C=Cc1ccc2ncnc(N[C@H]3CC[C@H](N4CCC5(CC4)CC5)CC3)c2c1 [Compound I-38, N-((1r,4r)-4-(6-azaspiro[2.5]octan-6-yl)cyclohexyl)-6-vinyl-quinazolin-4-amine] | ≤ 500 nM | ≤ 500 nM | ≤ 5000 nM
13 | N#CCc1ccc2ncnc(N[C@H]3CC[C@H](N4CCC5(CC4)COC5)CC3)c2c1 [Compound I-58, 2-(4-(((1r,4r)-4-(2-oxa-7-azaspiro[3.5]nonan-7-yl)cyclohexyl)-amino)quinazolin-6-yl)acetonitrile] | ≤ 500 nM | ≤ 500 nM | ≤ 5000 nM
14 | OCC#Cc1ccc2ncnc(N[C@H]3CC[C@H](N4CCC5(CC4)CC5)CC3)c2c1 [Compound I-44, 3-(4-(((1r,4r)-4-(6-azaspiro[2.5]octan-6-yl)cyclohexyl)amino)-quinazolin-6-yl)prop-2-yn-1-ol] | ≤ 500 nM | ≤ 500 nM | ≤ 5000 nM
15 | NC(=O)c1ccc2ncnc(N[C@H]3CC[C@H](N4CCOCC4)CC3)c2c1 [Compound I-5, 4-(((1r,4r)-4-morpholinocyclohexyl)amino)quinazoline-6-carboxamide] | > 5000 nM | 500 to 5000 nM | ≤ 5000 nM
16 | OC/C=C/c1ccc2ncnc(N[C@H]3CC[C@H](N4CCOCC4)CC3)c2c1 [Compound I-41, (E)-3-(4-(((1r,4r)-4-morpholinocyclohexyl)amino)quinazolin-6-yl)prop-2-en-1-ol] | ≤ 500 nM | ≤ 500 nM | ≤ 5000 nM
17 | NC(=O)/C=C/c1ccc2ncnc(N[C@H]3CC[C@H](N4CCOCC4)CC3)c2c1 [Compound I-54, (E)-3-(4-(((1r,4r)-4-morpholinocyclohexyl)amino)quinazolin-6-yl)acrylamide] | > 5000 nM | 500 to 5000 nM | ≤ 5000 nM
18 | Clc1ccc2ncnc(N[C@H]3CC[C@H](N4CCC5(CC4)COC5)CC3)c2c1 [Compound I-27, N-((1r,4r)-4-(2-oxa-7-azaspiro[3.5]nonan-7-yl)cyclohexyl)-6-chloroquinazolin-4-amine] | ≤ 500 nM | ≤ 500 nM | ≤ 5000 nM
19 | Clc1ccc2ncnc(N[C@H]3CC[C@H](N4CCC5(CC4)CC5)CC3)c2c1 [Compound I-36, N-((1r,4r)-4-(6-azaspiro[2.5]octan-6-yl)cyclohexyl)-6-chloro-quinazolin-4-amine] | 500 to 5000 nM | ≤ 500 nM | ≤ 5000 nM
